Data on 1 compound can be found in patent US20240269104A1, “METHOD FOR TREATING PARKINSON'S DISEASE” (Olatec Therapeutics, Inc., priority 2021, published 2024).

Holding throughout (format): in vivo, mice
One assay has as its system TNFα. Briefly: TNFα RNA in the brain by qPCR after MPTP. To be noted: 200 mg/kg oral gavage; striatum piece, 24 hours after first MPTP injection. The protocol: Mice were treated dapansutrile or saline and injected with MPTP as described in Example 2.
24 hours after the first injection of MPTP, mice were sacrificed. A piece of brain, centered in the striatum, was taken from each mouse and frozen in liquid nitrogen. Samples were homogenized with Trizol lysis reagent (Thermo Fisher) following the manufacturer's protocol. 1 μg of RNA from each sample was reversely transcribed using the High-Capacity Reverse Transcription kit (Applied BioSystems).
Gene expression measures were performed through qPCR using SYBR Green master mix (Applied Biosystems) and recommended thermal cycling parameters: 1 cycle of polymerase activation for 10 min at 95° C. and 40 cycles of denaturalization for 15 sec at 95° C. plus annealing/extension for 1 min at 60° ° C. (capture). Gene levels of TNFα (a pro-inflammatory cytokine) were normalized to the relation ratio of expression of the GADPH gene following the ΔΔCT method. Primers sequences are detailed below. Final fold-change values were obtained by normalization with naïve condition.
For orientation: In qPCR the cycle at which signal appears reflects the starting amount.

The subject of another assay is IL-6. In words: IL-6 in brain homogenates by ELISA after MPTP. To be noted: 200 mg/kg once each day; seven days after MPTP-acute. The text has this: (§1) It has been reported that administration of MPTP induces the assembly of NLPR3 inflammasome in the brain. Mice were sacrificed after anesthesia by cervical dislocation at 4 and 7 days after MPTP administration. Brains were collected, and the striatum (St) and ventral midbrain (VM) areas of both hemispheres were excised and frozen in liquid nitrogen. Samples were homogenized in RIPA buffer (Thermo Fisher, Waltham, MA) supplemented with protease inhibitor (Thermo Fisher) using a TissueRuptor (Qiagen, Germantown, MD). Protein concentration was determined using a BCA Protein Assay Kit (Thermo Fisher) according to manufacturer's instructions. Samples were diluted to 2 mg/ml in the same extraction buffer.
(§2) Levels of IL-1β, IL-18, IL-6, and IL-17A from brain homogenates were measured by ELISA DuoSet kit (R&D Systems, Minneapolis, MN). ELISA kit for IL-1β detects 92-95% of the 17 kDa form and only 8-5% of the precursor form of this cytokine. 96-well plates (ThermoFisher Scientific) were coated with capture antibody. Samples were incubated for two hours at room temperature. Detection antibodies and streptavidin-HRP were added. TMB ELISA (cBioscience, San Diego, CA) was used as substrate solution. Results were measured in a microplate reader (Bio-Tek, Santa Clara, CA). Final values were normalized by the protein concentration of each sample. 4-5 mice per group were used for each cytokine.
In general terms: An ELISA detects its analyte on a solid surface through an enzyme-linked reagent.

Another assay relates to IL-17A. Briefly: IL-17A in brain homogenates by ELISA after MPTP. To be noted: 200 mg/kg once each day; seven days after MPTP-acute; MPTP+saline 58 pg/μg.
Description: as §1, §2

Assay [1] relates to white blood cells, lymphocytes, monocytes, and granulocytes. Briefly: peripheral blood cell counts after MPTP-acute administration. As to conditions: 200 mg/kg, day seven after MPTP-acute. The protocol: Seven days after MPTP-acute administration, peripheral blood and spleen were isolated from each mouse, and hematological changes in the peripheral blood and cytokine production in the spleen were evaluated. […] White blood cells, lymphocytes, monocytes, and granulocytes were measured from the peripheral blood using a HemaTrue cell counter (Heska, Loveland, CO). Spleens were isolated and mechanically passed through a 70 μm cell strainer (ThermoFisher) in PBS. Cells were plated in a 96-well plate at a concentration of 200,000 cells/well in RPMI medium (Coring, New York, NY) with 10% FBS. After that, cells were stimulated with LPS at 1 μg/ml and 5 μg/ml. RPMI medium was used as control. After 72 hours, supernatant was isolated to measure the levels of IL-6. Cells were lysed with RIPA buffer (ThermoFisher) supplemented with protease inhibitor (ThermoFisher) to measure IL-1α levels. In both cases, 5-6 mice per group were used.

In the next assay the test system is α-synuclein. In words: α-synuclein Western blot in the ventral midbrain after MPTP-subacute administration. As to conditions: 200 mg/kg for 6 days, 24 hours after last MPTP injection. The method, then: MPTP (Sigma-Aldrich, St. Louis, MO) can be administered at two dose regimens: acute and sub-acute. For the acute regimen, MPTP was administered intraperitoneally (i.p.) four times in one day. Administrations were performed every two hours over an eight-hour period. For the subacute regimen, mice received a single i.p. administration of MPTP per day for five consecutive days. A 20 mg/kg free-base MPTP dose was used for every dose in both models. Sterile saline was used as the vehicle. Control mice were injected with saline solution using the same administration protocol and were defined as sham. Mice were sacrificed at different days after the first injection of MPTP. We used the acute protocol in C56BL/J mice to study dopamine neurodegeneration, inflammation, and motor deficits, whereas the subacute model was used to evaluate α-synuclein aggregation in the following examples.
Since MPTP promotes α-synuclein aggregation after subacute regimen, we evaluated the effect of dapansutrile on the levels of this protein. 24 hours after the last injection of MPTP, mice were sacrificed. The VM was excised, and proteins were resolved as described in Example 9. VM was selected as the region to evaluate α-synuclein accumulation according to previous publications. […] The levels of α-synuclein were determined by Western blot. […]

For the next assay, the system named is dopaminergic neurons. Briefly: tyrosine hydroxylase (TH) immunostaining of the nigrostriatal pathway after MPTP. As to conditions: 200 mg/kg for 7 days; seven days after MPTP-acute. The protocol:
To evaluate the effect of dapansutrile on dopaminergic neurons, mice were subjected to MPTP acute administration. Seven days after, when the levels of dopaminergic neurons are lower, the nigrostriatal pathway was evaluated by tyrosine hydroxylase (TH) immunostaining to assess the viability of dopaminergic neurons. Mice were perfused with 4% paraformaldehyde (Sigma-Aldrich) in PBS. Brains were removed and immersed in the same perfusion buffer overnight and then cryoprotected with 30% sucrose in 0.1M PBS at 4° C. After dehydration, samples were embedded in paraffin molds for sectioning. Coronal brain sections (4 μm thick) containing the St and SNpc were obtained and transferred to glass microscope slides. After antigen retrieval, slides were incubated with primary anti-TH antibody (1:2000, Abcam, Cambridge, UK) for 30 minutes at room temperature. TH antibody binding was detected using an anti-rabbit HRP-conjugated secondary polymer, followed by chromogenic visualization with diaminobenzidine (DAB, Cell Signaling). Hematoxylin counterstain was used to visualize nuclei. Processing of the samples was performed by Inotiv Boulder (Boulder, CO). Dopaminergic immunoreactivity in the St was calculated by measuring the integrated density by NIH ImageJ software. Stereological counting in the SNpc was performed by manual quantification of TH-positive neurons. Three sections per mice were used. Five mice were used for the sham+saline group, and seven mice were used for the MPTP group.

SMILES strings stand for the structures.

Regarding `CS(=O)(=O)CCC#N` [dapansutrile, 3-methanesulfonylpropionitrile], the “expression of TNFα RNA in the brain” value in the assay with TNFα is recorded as “reduces the expression of TNFα RNA in the brain”. Also, in the assay with IL-6, the “levels of IL-6 in the ventral midbrain (VM)” value is listed as “No effects were detected” and the “reduction of levels of IL-6 in the striatum (St)” value was determined as 26%. For the same compound, the “levels of IL-17A in the ventral midbrain (VM) after treatment” value in the assay with IL-17A came to 46 pg/µg. In assay [1], the “increase in number of circulating granulocytes” value was 33% and the “increase in number of circulating lymphocytes” value was 24%. Also, in the assay with α-synuclein, the “levels of monomeric form of α-synuclein (17 kDa) in the ventral midbrain” value is “significantly reduced” and the “levels of oligomeric forms of α-synuclein (150-30 kDa) in the ventral midbrain” value was “significantly reduced”. Moreover, in the assay on dopaminergic neurons, the “TH-positive fibers and neurons versus control mice” value is reported as “no significant changes against control mice were observed”; the “density of TH-positive fibers in the striatum versus MPTP mice treated with saline” value is reported as “increase”; the “increase of TH-positive neurons in the SNpc” value turned out to be 3 times.
